This is an account of results in patent US9012492B2, “Apocynin-lipoic acid conjugates and uses thereof” (priority 2011, dated 2015).

Like-named read-outs stand apart in the source and are kept apart here. Where only a bound is given, the exact number is not on record here.

The nature of data set [1]: Stability in sodium phosphate buffer (HPLC). The settings on record: for Half life: buffer; for half-life: buffer without microsomes and without NADPH. Type of data set: physicochemical. The protocol:
The stability of the compound of Formula (Ia) in a sodium phosphate buffer (50 mM, pH 7.4) was evaluated using HPLC. […] Area counts of apocynin and lipoid acid were found in 0 minute samples and were generally constant until the last time point measured (see: FIGS. 11-12 and Tables 5-6).

A further data set has as its system rat liver microsomes. Kind of data set: Metabolic stability using rat liver microsomes. More on the design: half-life: dose or concentration left out as unconfirmed. Type of data set: in vitro ADME. From the text:
(§1) Table 7 summarizes the experimental conditions used in the studies of the metabolic stability of the compound of Formula (Ia) using rat liver microsomes. Table 8 and FIG. 13 show the results from the studies of the metabolic stability of the compound of Formula (Ia) using rat liver microsomes. [table]

In data set [2] the test system is dog liver microsomes (DLM). Kind of data set: Metabolic stability using dog liver microsomes. In kind it is in vitro ADME. From the text:
(§2) Table 9 summarizes the experimental conditions used in the studies of the metabolic stability of the compound of Formula (Ia) using dog liver microsomes and human liver microsomes.

In data set [3] the test system is human liver microsomes (HLM). Put plainly: Metabolic stability using human liver microsomes. Type of data set: in vitro ADME.
Description: as §2

In a further data set the test system is Sprague-Dawley rats. The settings on record: previous studies, cited from earlier work.
The subject of data set [4] is markers of oxidative stress (SOD1, SOD2, GSH, GSSG, H2O2, HNE-His adducts, DNA fragmentation). The settings on record: administered 30 min prior to I/R; same model, previously demonstrated; cited from earlier work.
For a further data set, the system named is N27 neuronal cells. Kind of data set: DNA fragmentation ELISA after hydrogen peroxide exposure of N27 neuronal cells. Type of data set: cell-based. The settings on record: for DNA cell fragmentation: n = 4. The protocol:
Specifically, the effects of (Ia) on oxidative stress in N27 neuronal cells, a dopaminergic cell line were studied. […]
The cells were then lysed, and DNA fragmentation was determined by ELISA assay.
(In general: ELISA stands for enzyme-linked immunosorbent assay.)

A short description of data set [5]: Metabolic stability using rat liver microsomes. In kind it is in vitro ADME. Set-up: half-life: dose or concentration left out as unconfirmed. The settings on record: rat, rat liver microsomes, pH 7.4.
Description: as §1

Data set [6] can be described thus: Metabolic stability using dog liver microsomes. In kind it is in vitro ADME. The settings on record: dog, dog liver microsomes, pH 7.4; DLM control (without NADPH).
Description: as §2
Background: Liver microsomes are vesicles of endoplasmic reticulum, rich in cytochrome P450 enzymes.

A short description of data set [7]: Metabolic stability using human liver microsomes. Type of data set: in vitro ADME. The settings on record: human.
Description: as §2

Where [8] appears, read: matrix buffer (no microsomes, no NADPH), DLM/HLM study.
Where [9] appears, read: matrix buffer (no microsomes, no NADPH), rat liver microsome study.

As for “1,2-dithiolane-2-pentanoic acid [lipoic acid]”, the “CLintr (mL/min/g liver)” value in data set [1] was 0.9 mL/min/g liver; in data set [1] (rat) it was <0.6 mL/min/g liver; in the data set on rat liver microsomes (rat, microsomes), <0.6 mL/min/g liver; in [3] (human, microsomes) it was <0.6 mL/min/g liver. Also, the “Half life” value in [1] is >30 min; in [1] (rat), >30 min; in the data set with rat liver microsomes (rat, microsomes), >30 min; in data set [2] (dog, microsomes), >30 min; in [3] (human, microsomes) it was >30 min. In addition, the “% Metabolism in 30 minutes” value in [1] (setting [8]), in data set [1] (setting [9]) and in data set [3] was 0% throughout. Moreover, the “neuroprotection when administered just prior to the beginning of reperfusion” value with Sprague-Dawley rats (5 mg/kg) is “did not result in significant neuroprotection”. Moreover, in the data set on Sprague-Dawley rats (I/R model), the most effective dose is listed as 5 mg/kg. The SOD2 activity result in data set [4] is on record as “increased SOD2 activity”.

Take `COc1cc(C(C)=O)ccc1O` [Apocynin, 4-hydroxy-3-methoxyacetophenone]: the “DNA fragmentation induced by hydrogen peroxide reduced by” value in the data set on N27 neuronal cells (pretreatment 100 μM) worked out at 41%. In addition, the DNA cell fragmentation in the data set with N27 neuronal cells (pretreatment 100 μM, then hydrogen peroxide (1 mM)) was 244 ± 32 percentage of control. Also, the half-life (commonly how long it takes for the measured level to halve) was > 30 min in data set [1] (setting [8]); > 30 min in data set [1] (setting [9]); > 30 min in data set [7] (human liver microsomes, HLM control (without NADPH)). In addition, the “% Metabolism in 30 minutes” value in [1] (setting [8]) was determined as 1%; in [1] (setting [9]), 0%; with rat liver microsomes (RLM, control (without NADPH)), 2%; with rat liver microsomes (RLM, reaction (with NADPH)) it was 0%; in [2] (DLM control (without NADPH)), 0%; in [2] (DLM reaction (with NADPH)) it was 30%. Besides, the “% Metabolism in 30 minutes” value in data set [3] (HLM control (without NADPH)) and in [3] (HLM reaction (with NADPH)) was 0% each time. Also, the “CLintr (mL/min/g liver)” value in data set [1] (setting [8]) is recorded as <0.6 mL/min/g liver; in [1] (setting [9]) it was <0.6 mL/min/g liver; with rat liver microsomes (RLM, control (without NADPH)), <0.6 mL/min/g liver; in the data set on rat liver microsomes (RLM, reaction (with NADPH)), <0.6 mL/min/g liver; in data set [2] (DLM control (without NADPH)), <0.6 mL/min/g liver; in [2] (DLM reaction (with NADPH)) it was 1.6 mL/min/g liver. For the same molecule, the “CLintr (mL/min/g liver)” value in [3] (HLM control (without NADPH)) and in data set [3] (HLM reaction (with NADPH)) was <0.6 mL/min/g liver in each case. Besides, the half-life at 0.5 µM in data set [5] (RLM, control (without NADPH)) is > 30 min; in data set [6], > 30 min. Moreover, the “Half life” value was >30 min in the data set with rat liver microsomes (RLM, reaction (with NADPH)); >30 min in data set [2] (DLM reaction (with NADPH)); >30 min in [3] (HLM reaction (with NADPH)). The SOD2 activity result in [4] is given as “ineffective”.

`c1ccc2c(c1)[I+]c1ccccc1-2` [DPI, diphenyleneiodonium]: the “DNA fragmentation induced by hydrogen peroxide reduced by” value with N27 neuronal cells (pretreatment 10 μM) amounted to 48%. In addition, the DNA cell fragmentation in the data set on N27 neuronal cells (pretreatment 10 μM, then hydrogen peroxide (1 mM)) was 208 ± 38 percentage of control.

Regarding `OO` [Hydrogen Peroxide, hydrogen peroxide], the DNA cell fragmentation in the data set with N27 neuronal cells (hydrogen peroxide alone (6 hr)) is reported as 428 ± 52 percentage of control.

On to `O=C(O)Cc1ccccc1Nc1c(Cl)cccc1Cl` [diclofenac], for which the half-life in data set [5] (matrix RLM (positive control)) was found to be 11 min; in data set [7] (microsomes, matrix HLM (positive control)) it was 9 min. For the same molecule, the entries for the “% Metabolism in 30 minutes” value (in the data set on rat liver microsomes (matrix RLM (positive control)); in [3] (matrix HLM (positive control))) were 84% and 92%, respectively. The “CLintr (mL/min/g liver)” value in the data set with rat liver microsomes (matrix RLM (positive control)) is recorded as 6.4 mL/min/g liver; in [3] (matrix HLM (positive control)), 8.4 mL/min/g liver.
